Experimental data: patent publication US4409221A, “1,2,3,4,4a,9b-Hexahydro-4a-piperazinylmethyl-4-dibenzofuranone or -dibenzofuranol derivatives” (Riom Laboratories - Cerm S.A., priority 1981, dated 1983)
Where a name gives a salt, the structure may show the parent alone.

Experiments:
[1] = test system: histamine type bronchospasms; test: anti-bronchoconstrictor activity in guineapigs, KONZETT and ROSSLER technique, histamine-induced bronchospasm; assay type: in vivo; settings: histamine 5 μg/kg^-1 i.v.; for inhibition at 1 mg/kg / inhibition at 5 mg/kg: iv, anaesthetised guineapigs, read-out: Percentage Inhibition
Experimental: (§1) The anti-bronchoconstrictor activity of the compounds of the invention is evaluated in guineapigs by the KONZETT and ROSSLER technique.
(§2) After being anaesthetised with ethyl carbamate and submitted to tracheotomy, the animals are given artificial breathing at constant volume and the intertracheal pressure is recorded, which makes an indirect measurement of the total pulmonary resistance possible. Histamine (5 μg/kg^-1 i.v.) is administered before, and at different time intervals after, intravenous administration of the compounds of the invention.
(§3) The activity of the product under study is evaluated by comparing the amplitudes of the bronchospasms before and after treatment and calculating the percentage change. The duration of action of the compounds under study has also been observed. (Table I). This table also contains an acute toxicity rating (LD50) determined by oral administration in mice.

[2] = test system: serotoninergic bronchospasms; test: bronchospasm experiment repeated replacing histamine with serotonin; assay type: in vivo, guineapigs; settings: iv, 1 h; compound 5 mg/kg^-1 intravenously; serotonin 20 μg/kg^-1 I.V.; observed during 60 minutes
Experimental: as §1, §2, §3
In addition, the bronchosparm experiment was repeated, but replacing histamine with serotonine, (20 μg/kg^-1, I.V.).

[3] = acute toxicity rating (LD50) by oral administration in mice; settings: mouse, in vivo
Experimental: as §3

CCOC(CN1CCN(CC23Oc4ccccc4C2CCCC3O)CC1)c1ccccc1 (centres unmarked) [Compound 1, 1,2,3,4,4a,9b-hexahydro-4a-(1-[4-(2-ethoxy-2-phenyl)ethyl]piperazinyl)methyl-4-dibenzofuranol]
Duration (duration of action) ([1]; compound 1 mg/kg^-1 I.V.): > 60 min | Duration (duration of action) ([1]; compound 5 mg/kg^-1 I.V.): > 60 min | inhibition at 1 mg/kg ([1]; compound 1 mg/kg^-1 I.V.): 87.7 ± 6.6% | inhibition at 5 mg/kg ([1]; compound 5 mg/kg^-1 I.V.): 100% | inhibition at 5 mg/kg [2]: 87.6%

CCOC(CN1CCN(CC23Oc4ccc(F)cc4C2CCCC3O)CC1)c1ccccc1 (centres unmarked) [Compound 2, 1,2,3,4,4a,9b-hexahydro-4a-(1-[4-(2-ethoxy-2-phenyl)ethyl]piperazinyl)methyl-8-fluoro-4-dibenzofuranol, 2 HCl]
Duration (duration of action) ([1]; compound 5 mg/kg^-1 I.V.): > 60 min | inhibition at 5 mg/kg ([1]; compound 5 mg/kg^-1 I.V.): 95 ± 3.1% | LD50 [3]: 900 mg/kg

CCOC(CN1CCN(CC23Oc4c(OC)cccc4C2CCCC3=O)CC1)c1ccccc1 (centres unmarked) [Compound 3]
Duration (duration of action) ([1]; compound 5 mg/kg^-1 I.V.): > 45 min | inhibition at 5 mg/kg ([1]; compound 5 mg/kg^-1 I.V.): 97.5 ± 2.5% | LD50 [3]: 320 mg/kg

CCOC(CN1CCN(CC23Oc4ccccc4C2CCCC3=O)CC1)c1ccccc1 (centres unmarked) [Compound 5, 1,2,3,4,4a,9b-hexahydro-4a-(1-[4-(2-ethoxy-2-phenyl)ethyl]piperazinyl)methyl-4-dibenzofuranone]
Duration (duration of action) ([1]; compound 5 mg/kg^-1 I.V.): > 45 min | inhibition at 5 mg/kg ([1]; compound 5 mg/kg^-1 I.V.): 80.2 ± 9.9% | LD50 [3]: 900 mg/kg

CCOC(CN1CCN(CC23Oc4ccc(OC)cc4C2CCCC3O)CC1)c1ccccc1 (centres unmarked) [Compound 6]
Duration (duration of action) ([1]; compound 5 mg/kg^-1 I.V.): > 45 min | inhibition at 5 mg/kg ([1]; compound 5 mg/kg^-1 I.V.): 48.2 ± 9.2% | LD50 [3]: 900 mg/kg

COC(CN1CCN(CC23Oc4ccccc4C2CCCC3O)CC1)c1ccccc1 (centres unmarked) [Compound 8]
Duration (duration of action) ([1]; compound 1 mg/kg^-1 I.V.): > 60 min | inhibition at 1 mg/kg ([1]; compound 1 mg/kg^-1 I.V.): 95.5 ± 4.6% | LD50 [3]: 480 mg/kg
